Article PMC7687371, “Quantitative in Vitro to in Vivo Extrapolation (QIVIVE) for Predicting Reduced Anogenital Distance Produced by Anti-Androgenic Pesticides in a Rodent Model for Male Reproductive Disorders” (Environmental Health Perspectives, 2020)
Like-named read-outs stand apart in the source and are kept apart here. Marks after values point to notes of the source that are not given here.

Assays:
[1] = Fetal chemical exposure analysis (LC-QTOF) at GD21; assay type: in vivo, rat; settings: fetal plasma GD21, mean litter value; dams dosed 40 mg/kg BW per day parent compound (Study 1)
Protocol: Dams were decapitated under CO2 /oxygen anesthesia at GD21 and fetuses collected by cesarean section. Prior to decapitation of the fetuses, their BWs and AGDs were recorded. Blood from the dams was collected in heparinized vacutainer tubes, centrifuged at 125×g for 10 min at 4°C to prepare plasma, and, together with the amniotic fluid, frozen directly. Pooled trunk blood from all female and male fetuses of the same litter (female and male blood separately) was collected into heparin-treated capillary tubes approximately 90 min after dosing and the plasma was prepared and stored at −80°C until analysis for pesticides and selected metabolites by liquid chromatography quadrupole time-of-flight mass spectroscopy (LC-QTOF). Details about the LC-QTOF analyses are provided in “Method S1” in Supplemental Material. Amniotic fluid was collected from fetuses by pipetting, pooled within each litter, snap frozen in liquid nitrogen, and subsequently stored at −80 °C .
Method S1. Chemical analysis of pesticide levels
Acetonitrile, methanol, formic acid and 25% ammonium hydroxide, all of LC-MS grade and ethyl acetate were obtained from Sigma Aldrich, Schneldorf, Germany. Isolute bulk C-18 sorbent was obtained from Biotage, Sweden and was washed with acetonitrile and ethyl acetate and dried prior to use. Water was purified on a Milli Q system, Millipore Corporation, US.
Pesticide standards were purchased from Dr. Ehrenstorfer (Augsburg, Germany), LGC-standards (Teddington, Middlesex, UK) and Sigma Aldrich (St. Louis, MO, USA). Acetonitrile used as solvents for the LC-QTOF was LiChrosolv Hypergrade. An ESI-L low concentration tuning mix from Agilent (Santa Clara, CA, USA) was used for tuning of the TOF. A reference solution was prepared containing Purine and HP0921 from Agilent (Santa Clara, CA, USA).
Stock solutions of the pesticides were prepared at 1 mg/ml in acetonitrile, methanol or toluene.
Standard mixtures containing the test compounds were prepared at a concentration of 10 µg/ml acetonitrile and used for preparation of calibration solutions. Isomers eluting very close to each other were avoided in these mixtures. […]
added 200 µl of ice-cold acetonitrile in Eppendorf tubes. Internal standard was added in the form of 10 µl TPP (5 µg/ml) and the extraction was performed by whirl mixing. The tube was then stored on ice for 5 min and then centrifuged at 10,000 x g for 10 min at 4 °C (Ole Dich Instrument, Denmark). An aliquot of the supernatant was transferred to filter vials (0.45 µm) and analysed by […]
Quality control samples were included in each analytical run. These were prepared using the same procedure as for the samples, though using amniotic fluid from untreated control Wistar rats extracted with acetonitrile containing three different levels of the relevant pesticide standards. The resulting spike levels were 0.04, 0.013 and 0.13 µg/ml. […]
fluid or plasma from Sprague Dawley rats was transferred to an Eppendorf vial and added 150 µl of acetonitrile. 50 mg of isolute C-18 sorbent was added to the tube, which was shaken for 5 min, […]
cooled to 4 °C and centrifuged at 10,000 x g for 10 min at 4 °C (Ole Dich Instrument makers, Denmark). 20 µl of the supernatant was transferred to an HPLC vial and mixed with 80 µl of 5%- 75% acetonitrile (this percentage was analyte dependent) prior to analysis by LC-MS.LC -QTOF […]
Pesticide screening was carried out using a liquid chromatography-electrospray ionization-quadrupole-time of flight-mass spectrometer.
The LC system was connected to a Bruker Daltonics, maXis qTOF mass spectrometer equipped with an electrospray ion source operated in positive ion mode (Bruker Daltonics, Bremen, Germany). The ion source settings were: nebulizer pressure 2 bars, drying gas flow 8 l/min, dry gas temperature 200 °C, capillary voltage 2500 V. The scan range was from 80 to 700 m/z with an acquisition rate of 2 Hz. Sodium formate dissolved in 50% 2-propanol was introduced in the ion […]

[2] = design: method as in U.S. EPA 2012; settings: EPI Suite, experimental preferred over modeled; ref U.S. EPA 2012; cited from earlier work
Wistar rats [3] = settings: rat, in vivo, cited from earlier work
NCI-H295R cells [4] = experiment: H295R steroidogenesis assay; assay type: cell-based, human; settings: for Effect on androgen (steroid) synthesis, in words: H295R steroidogenesis assay
Protocol: To capture effects on steroid hormone synthesis (testosterone and androstendione), we tested all 12 pesticides in the H295R assay with the human adrenocortical carcinoma cell line NCI-H295R (American Type Culture Collection no. CRL-2,128, LGC Standards), as previously described ([Hecker et al. 2011]; [Rosenmai et al. 2013]). In brief, cells were cultured in DMEM/F-12 +glutamine medium with HEPES buffer (Invitrogen) containing 1% insulin-transferrin-sodium selenite plus Premix (VWR) and 2.5% Nu-Serum (BD Bioscience) at 37°C in a 5% CO2 atmosphere. The day before exposure, cells were seeded 300,000 per well in clear 24-well plates (VWR Corning). Cells were exposed for 48 h to control (Forskolin: 1μM , 10μM (Sigma-Aldrich); and Prochloraz: 0.3μM , 3μM (VWR-Bie and Berntsen) or test compounds. The vehicle (DMSO) concentration was kept constant in all wells (0.1%). After 48 h, the exposure culture medium was removed and stored at –80°C until the levels of 10 steroid hormones (testosterone, androstenedione, aldosterone, corticosterone, cortisol, dehydroepiandrosterone, 17α-hydroxyprogesterone , progesterone, estrone, and 17β-estradiol ) were quantified using the high-performance liquid chromatography–tandem mass spectrometry method described elsewhere ([Mortensen and Pedersen 2007]). Minor modifications were made to accommodate a smaller sample size and to include more hormones. The liquid chromatography system (Agilent 1100) was equipped with an Atlantis C18 column ( 2.1×150mm , 3μm ) (Waters Corp.) maintained at 40°C. The sample injection volume was 50μL . […] The mass spectrometer was a Quattro Ultima triple quadrupole instrument (Waters Corp.). […] Each pesticide was tested in 2-fold serial dilutions at concentrations between 0.8 and 50μM in three independent experiments, and hormone levels were normalized to the solvent controls containing 0.1% DMSO. Cell viability was evaluated by using the 3-(4,5-dimethylthiazol-2-yl)-2,5- diphenyltetrazolium bromide (MTT) assay (Sigma) as previously described ([Hecker et al. 2011]; [Rosenmai et al. 2013]). Fluorescence was measured (excitation 560 nm , emission 590 nm ) using a Wallac Victor2 1420 multilabel counter (PerkinElmer).

[5] = ref Wetmore et al. (2012); cited from earlier work
[6] = PBK model first-order kinetic parameters fitted to in vivo ADME data; design: species or system rat; settings: PBK model parameter; for Metabolism rate in liver, Total (L/h) KMetab: metabolic clearance
Wistar rats [7] = settings: male, rat, in vivo, 40 mg/kg/day
Protocol: In total, four in vivo exposure studies were conducted with pesticide exposures to pregnant rats during gestation and lactation to the selected compound (Table 2). […] For one selected dose of each compound, the internal body concentrations in dams and fetuses were determined by cesarean section at GD21. Due to the study outcomes from the third study, we conducted a fourth follow-up study on dimethomorph (Study 4).
Pup weights and AGD were measured after birth at PD1 using a stereomicroscope with a micrometer eyepiece and were determined as the distance between the genital papilla and the anus. To discriminate between an anti-androgenic effect and stunted growth, the AGD index (AGDI) was calculated by dividing AGD by the cube root of the BW (as described by [Hass et al. 2007]). The estimation of AGDI effect doses by regression modeling required a standardized AGDI scale. Therefore, we normalized the AGDI values in relation to the dynamic range spanned by the mean AGDI of the male and the female controls as (38) normalized AGDI=mean(AGDI of male controls)−AGDI(exposed animal)/mean(AGDI of male controls)−mean(AGDI of female controls).

pregnant dams and pups = settings: ref EFSA's Draft Assessment Reports (DARs); cited from earlier work
NCI-H295R cells [8] = experiment: Cell viability (MTT) in the H295R assay; assay type: cell-based, human
Protocol: To capture effects on steroid hormone synthesis (testosterone and androstendione), we tested all 12 pesticides in the H295R assay with the human adrenocortical carcinoma cell line NCI-H295R (American Type Culture Collection no. CRL-2,128, LGC Standards), as previously described ([Hecker et al. 2011]; [Rosenmai et al. 2013]). In brief, cells were cultured in DMEM/F-12 +glutamine medium with HEPES buffer (Invitrogen) containing 1% insulin-transferrin-sodium selenite plus Premix (VWR) and 2.5% Nu-Serum (BD Bioscience) at 37°C in a 5% CO2 atmosphere. The day before exposure, cells were seeded 300,000 per well in clear 24-well plates (VWR Corning). Cells were exposed for 48 h to control (Forskolin: 1μM , 10μM (Sigma-Aldrich); and Prochloraz: 0.3μM , 3μM (VWR-Bie and Berntsen) or test compounds. The vehicle (DMSO) concentration was kept constant in all wells (0.1%). After 48 h, the exposure culture medium was removed and stored at –80°C until the levels of 10 steroid hormones (testosterone, androstenedione, aldosterone, corticosterone, cortisol, dehydroepiandrosterone, 17α-hydroxyprogesterone , progesterone, estrone, and 17β-estradiol ) were quantified using the high-performance liquid chromatography–tandem mass spectrometry method described elsewhere ([Mortensen and Pedersen 2007]). Minor modifications were made to accommodate a smaller sample size and to include more hormones. […]

C=CC1(C)OC(=O)N(c2cc(Cl)cc(Cl)c2)C1=O (stereo not shown) [Vinclozolin, vinclozolin]
Measured concentration in male fetuses (μM) [1]: <0.15 ^e μM | log Kow [2]: 3.10 | AGDI (normalised to male and female controls) mean (Wistar rats [3]; 5 mg/kg): 0.96 | AGDI (normalised to male and female controls) mean (Wistar rats [3]; 10 mg/kg): 0.80 | AGDI (normalised to male and female controls) mean (Wistar rats [3]; 20 mg/kg): 0.83 | AGDI (normalised to male and female controls) mean (Wistar rats [3]; 24.5 mg/kg): 0.93 | AGDI (normalised to male and female controls) mean (Wistar rats [3]; 40 mg/kg): 0.72 | AGDI (normalised to male and female controls) mean (Wistar rats [3]; 80 mg/kg): 0.46 | AGDI (normalised to male and female controls) mean (Wistar rats [3]; 95.9 mg/kg): 0.42 | AGDI (normalised to male and female controls) mean (Wistar rats [3]; 160 mg/kg): 0.25 | AGDI ED10 (Wistar rats [3]): 9.2 mg/kg BW | AGDI ED50 (Wistar rats [3]): 78.7 mg/kg BW | Effect on androgen (steroid) synthesis, in words (NCI-H295R cells [4]): negligible activity in terms of suppressing steroid synthesis | Unbound plasma fraction (%) [5]: 59^g % | Portal GI absorption rate into liver (L/h) KAS [6]: 0.5 L/h | Urine excretion rate from kidney (L/h) KUrine [6]: 0.05 L/h | Metabolism rate in liver, Total (L/h) KMetab [6]: 1.4 L/h | AGDI reduction (%) (Wistar rats [7]): 26^d %

Fc1ccc(Oc2ccnc3cc(Cl)cc(Cl)c23)cc1 [Quinoxyfen, quinoxyphen]
Critical toxicity (pregnant dams and pups): Reduced pup BW during lactation, liver hypertrophy | LOAEL (mg/kg bw) (pregnant dams and pups): 100 mg/kg bw | NOAEL (mg/kg bw) (pregnant dams and pups): 25 mg/kg bw | log Kow [2]: 4.66 | Effect on androgen (steroid) synthesis, in words (NCI-H295R cells [4]): inhibited testosterone synthesis | IC20 (NCI-H295R cells [4]; Homo sapiens, NCI-H295R, read-out: Testosterone inhibition (IC20 µM)): 1 µM | Androstendione, LOEC (NCI-H295R cells [4]; multiple contrast tests): 1.6 µM | Corticosterone, LOEC (NCI-H295R cells [4]; multiple contrast tests): 3.1 µM | DHEA, LOEC (NCI-H295R cells [4]; multiple contrast tests): 1.6 µM | Estradiol, LOEC (NCI-H295R cells [4]; multiple contrast tests): 25 µM | Progesterone, LOEC (NCI-H295R cells [4]; multiple contrast tests): 50 µM | Testosterone, lowest observed effect concentration (LOEC) (NCI-H295R cells [4]; multiple contrast tests): 1.6 µM | Cytotoxicity in H295R assay, concentrations (NCI-H295R cells [8]): cytotoxicity was observed at the same concentrations | Unbound plasma fraction (%) [5]: 5.0^g % | Biliary excretion rate (L/h) KBiliary [6]: 1.4 L/h | Fecal excretion rate from gut (L/h) KFeces [6]: 2 L/h | Portal GI absorption rate into liver (L/h) KAS [6]: 1 L/h | Urine excretion rate from kidney (L/h) KUrine [6]: 0.01 L/h | Metabolism rate in liver, Total (L/h) KMetab [6]: 0.3 L/h
